Source: US5668131A, “Substituted aminoalkylaminopyridines” (BYK Gulden Lomberg Chemische Fabrik GmbH, priority 1993, dated 1997)
Where a name gives a salt, the structure may show the parent alone.

These molecules were tested on Helicobacter pylori (assay: Activity on Helicobacter pylori (MIC, Columbia agar, 4 days growth period)). Details: Columbia agar (Oxoid), growth period of 4 days.
Assay type: cell-based

| Compound | MIC-Value [µg/mL] |
| --- | --- |
| Cc1c(N(C)CCN(C)Cc2ccco2)ccnc1CSc1nc2ccccc2[nH]1.Cl.Cl.Cl [Compound 4, 2-{3-Methyl-4-{N-{2-[N-(2-furfuryl)-N-methylamino]-ethyl}-N-methylamino}-2-pyridyl}-methylthio-1H-benzimidazole trihydrochloride] | < 1 |

Same assay, conditions: Helicobacter pylori, 96 h; Columbia agar (Oxoid), growth period of 4 days

| MIC [µg/mL] | Compound |
| --- | --- |
| < 1 | CN(CCN1CCN(Cc2ccccc2)CC1)c1ccnc(CSc2nc3ccccc3[nH]2)c1Cl [Compound 16, 2-{3-Chloro-4-{N-[2-(4-benzylpiperazino)-ethyl]-N-methylamino}-2-pyridyl}-methylthio-1H-benzimidazole trihydrochloride] |
| < 1 | CN(CCN1CCCCC1)c1ccnc(CSc2nc3ccccc3[nH]2)c1Cl [Compound 13, 2-{3-Chloro-4-[N-(2-piperidinoethyl)-N-methylamino]-2-pyridyl}-methylthio-1H-benzimidazole] |
| < 1 | CN(CCN1CCN(c2ccccc2)CC1)c1ccnc(CSc2nc3ccccc3[nH]2)c1Cl [Compound 15, 2-{3-Chloro-4-{N-[2-(4-phenylpiperazino)-ethyl]-N-methylamino}-2-pyridyl}-methylthio-1H-benzimidazole hydrochloride] |
| < 1 | COc1ccccc1N1CCN(CCN(C)c2ccnc(CSc3nc4ccccc4[nH]3)c2Cl)CC1 [Compound 17, 2-{3-Chloro-4-{N-[2-(4-(2-methoxyphenyl)-piperazino)-ethyl]-N-methylamino}-2-pyridyl}-methylthio-1H-benzimidazole trihydrochloride] |
| < 1 | CN(CCN1CCC(Cc2ccccc2)CC1)c1ccnc(CSc2nc3ccccc3[nH]2)c1Cl [Compound 12, 2-{3-Chloro-4-{N-[2-[4-benzyl-piperidino)-ethyl]-N-methylamino}-2-pyridyl}-methylthio-1H-benzimidazole] |
| < 1 | CN(CCN1CCc2ccccc2C1)c1ccnc(CSc2nc3ccccc3[nH]2)c1Cl [Compound 2, 2-{3-Chloro-4-{N-[2-(1,2,3,4-tetrahydro-2-isoquinolinyl)ethyl]-N-methylamino}-2-pyridyl}-methylthio-1H-benzimidazole trihydrochloride] |
| < 1 | CN(CCN1CCC(c2ccccc2)CC1)c1ccnc(CSc2nc3ccccc3[nH]2)c1Cl [Compound 11, 2-{3-Chloro-4-{N-[2-(4-phenyl-piperidino)-ethyl]-N-methylamino}-2-pyridyl}-methylthio-1H-benzimidazole] |
| < 1 | CN(CCN(C)c1ccnc(CSc2nc3ccccc3[nH]2)c1Cl)Cc1ccco1 [Compound 10, 2-{3-Chloro-4-{N-[2-(N-furfuryl-N-methylamino)ethyl]-N-methylamino}-2-pyridyl}-methylthio-1H-benzimidazole trihydrochloride] |
| < 1 | COc1cc2c(cc1OC)CN(CCN(C)c1ccnc(CSc3nc4ccccc4[nH]3)c1Cl)CC2 [Compound 14, 2-{3-Chloro-4-{N-[2-(6,7-dimethoxy-1,2,3,4-tetrahydro-2-isoquinolinyl)ethyl]-N-methylamino}-2-pyridyl}-methylthio-1H-benzimidazole] |
| < 1 | CN(CCN(C)c1ccnc(CSc2nc3ccccc3[nH]2)c1Cl)Cc1ccccc1 [Compound 6, 2-{3-Chloro-4-{N-[2-(N-benzyl-N-methylamino)-ethyl]-N-methylamino}-2-pyridyl}-methylthio-1H-benzimidazole trihydrochloride] |
| < 1 | CCN(CCN(C)c1ccnc(CSc2nc3ccccc3[nH]2)c1Cl)Cc1ccccc1 [Compound 1, 2-{3-Chloro-4-{N-[2-(N-benzyl-N-ethylamino)ethyl]-N-methylamino}-2-pyridyl)-methylthio-1H-benzimidazole trihydrochloride] |
| < 1 | CN(CCCN1CCC(Cc2ccccc2)CC1)c1ccnc(CSc2nc3ccccc3[nH]2)c1Cl [Compound 21, 2-{3-Chloro-4-{N-[3-(4-benzyl-piperidino)-propyl]-N-methylamino}-2-pyridyl}-methylthio-1H-benzimidazole trihydrochloride] |
| < 1 | CN(CCCN1CCc2ccccc2C1)c1ccnc(CSc2nc3ccccc3[nH]2)c1Cl [Compound 18, 2-{3-Chloro-4-{N-[3-(1,2,3,4-tetrahydro-2-isoquinolinyl)-propyl]-N-methylamino}-2-pyridyl}-methylthio-1H-benzimidazole trihydrochloride] |
| < 1 | CN(CCN1CCc2ccccc2C1)c1ccnc(CSc2nc3ncccc3[nH]2)c1Cl [Compound 5, 2-{3-Chloro-4-{N-[2-(1,2,3,4-tetrahydro-2-isoquinolinyl)ethyl]-N-methylamino)-2-pyridyl}-methylthio-1H-imidazo[5,4-b]pyridine] |
| < 1 | CN(CCc1ccccc1)CCN(C)c1ccnc(CSc2nc3ccccc3[nH]2)c1Cl [Compound 9, 2-{3-Chloro-4-{N-[2-(N-methyl-N-phenethylamino)-ethyl]-N-methylamino}-2-pyridyl}-methylthio-1H-benzimidazole trihydrochloride] |
| < 1 | COc1cc2c(cc1OC)CN(CCCN(C)c1ccnc(CSc3nc4ccccc4[nH]3)c1Cl)CC2 [Compound 20, 2-{3-Chloro-4-{N-[3-(6,7-dimethoxy-1,2,3,4-tetrahydro-2-isoquinolinyl)-propyl]-N-methylamino}-2-pyridyl}-methylthio-1H-benzimidazole trihydrochloride] |
| < 1 | CN(CCCN(C)c1ccnc(CSc2nc3ccccc3[nH]2)c1Cl)Cc1ccccc1 [Compound 19, 2-{3-Chloro-4-{N-[3-(N-benzyl-N-methylamino)propyl]-N-methylamino}-2-pyridyl}-methylthio-1H-benzimidazole trihydrochloride] |
